Test results published in US9193695B2, “1, 2, 4-triazolone derivative and use thereof as an antagonist on the arginine-vasopressin 1B receptor” (TAISHO PHARMACEUTICAL CO., LTD., priority 2010, dated 2015).

Legend:
Human V1b receptor [1] = biological target: T1, Human V1b receptor (Homo sapiens, UniProt P47901); assay: Measurement of V1b receptor antagonistic activity (AVP-induced fluorescence, Fluo-4, FDSS); assay type: cell-based; design: expressed in transfected cells
T1 sequence (P47901 1-424): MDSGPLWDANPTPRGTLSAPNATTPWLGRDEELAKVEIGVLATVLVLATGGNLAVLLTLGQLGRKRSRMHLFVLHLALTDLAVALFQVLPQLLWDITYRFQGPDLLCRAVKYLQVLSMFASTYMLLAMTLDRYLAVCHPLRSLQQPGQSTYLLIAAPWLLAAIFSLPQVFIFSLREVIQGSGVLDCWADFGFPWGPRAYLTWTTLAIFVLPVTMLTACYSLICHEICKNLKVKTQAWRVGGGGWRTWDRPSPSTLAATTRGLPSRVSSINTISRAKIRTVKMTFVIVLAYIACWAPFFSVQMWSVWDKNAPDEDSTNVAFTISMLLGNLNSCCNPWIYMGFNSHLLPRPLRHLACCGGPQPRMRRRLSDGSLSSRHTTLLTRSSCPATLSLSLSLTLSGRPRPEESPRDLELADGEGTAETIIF
Experimental: Measurement of V1b Receptor Antagonistic Activity
CHO cells (ATCC) stably expressing human V1b receptor were cultured in Ham's F-12 medium (containing 10% FBS and 0.5 mg/mL Geneticin). The cells were seeded the day before the test at 20,000 cells/well in a 96-well poly-D-lysine coated black plate. On the day of the test, the culture medium was removed, and a loading solution (1×HBSS, 10 mmol/L HEPES, 0.1% bovine serum albumin, 1.25 mmol/L Probenecid, 0.02% Pluronic F-127, 1.5 μmol/L Fluo-4-AM, pH 7.4) was added to each well, followed by incubation in a CO2 incubator for 1 hour. After the incubation, the loading solution was removed. A test solution (1×HBSS, 10 mmol/L HEPES, 0.1% bovine serum albumin, 1.25 mmol/L Probenecid, pH 7.4) containing any one of test compounds was added to wells, followed by incubation in a CO2 incubator for 30 minutes. The test compound was serially diluted with DMSO so as to be assayed at a final concentration of 0.1 nmol/L to 1 μmol/L. After the incubation, measurement of fluorescence intensity levels and addition of AVP were performed with Functional Drug Screening System (FDSS, Hamamatsu Photonics K.K.). […] The fluorescence level in the well not containing any test compound and AVP was defined as 0%, and the fluorescence level in the well not containing any test compound but containing AVP was defined as 100%. A dose-response curve was plotted from fluorescence levels after the addition of AVP in the presence of a test compound at various concentrations, and the 50% inhibitory concentration (IC50 value) of the compound was calculated.

Human V1b receptor [2] = biological target: T1, Human V1b receptor; assay: Binding test for V1b receptor ([3H]AVP displacement, crude membrane preparation); design: expressed in transfected cells; host or cells: 293FT cells (Invitrogen), transient expression; crude membrane preparation; settings: [3H]AVP 0.4 to 1 nmol/L; membranes of 293FT cells transiently expressing human V1b receptor; room temperature, 60 minutes
In short: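 Crude membranes from 293FT cells transiently expressing human V1b, in 50 mmol/L Tris-HCl pH 7.4 with 10 mmol/L MgCl2 and 0.1% BSA, incubated with compound (0.01 nmol/L–1 μmol/L) and [3H]AVP (0.4–1 nmol/L) for 60 min at room temperature. Filter-bound radioactivity counted; 10 μmol/L unlabeled AVP defined 0%. IC50 from dose-response curve.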

[3] = CHO cells stably expressing human V1b receptor, AVP 2.5 nmol/L, 30 minutes preincubation, read-out: IC50 value (V1b receptor antagonistic activity)

Compound	IC50 (Human V1b receptor [1]; [3]) [µM]	IC50 (Human V1b receptor [2]) [µM]	IC50 (Human V1b receptor [1]) [µM]
CC(C)NC(=O)Cn1c(-c2cccc(Cl)c2)nn(-c2ccc(CCN3C4CCC3CC(O)C4)cc2)c1=O (stereo not shown) [Aa-8, 2-[3-(3-Chlorophenyl)-1-{4-[2-(3-hydroxy-8-azabicyclo[3.2.1]oct-8-yl)ethyl]phenyl}-5-oxo-1,5-dihydro-4H-1,2,4-triazol-4-yl]-N-(propan-2-yl)acetamide]	0.023	0.0041	–
CC(C)NC(=O)Cn1c(-c2cccc(Cl)c2)nn(-c2ccc(CCN3C4CCC3COC4)cc2)c1=O [Aa-10, 2-[3-(3-Chlorophenyl)-1-{4-[2-(3-oxa-8-azabicyclo[3.2.1]oct-8-yl)ethyl]phenyl}-5-oxo-1,5-dihydro-4H-1,2,4-triazol-4-yl]-N-(propan-2-yl)acetamide]	–	0.0047	0.02
CC(C)NC(=O)Cn1c(-c2cccc(Cl)c2)nn(-c2ccc(CCN3CCOCC3)cn2)c1=O [Ab-2, 2-[3-(3-Chlorophenyl)-1-{5-[2-(morpholin-4-yl)ethyl]pyridin-2-yl}-5-oxo-1,5-dihydro-4H-1,2,4-triazol-4-yl]-N-(propan-2-yl)acetamide]	0.013	0.041	–
CC(C)NC(=O)Cn1c(-c2cccc(Cl)c2)nn(-c2ccc(CCN3C4CCC3COC4)cn2)c1=O [Ab-5, 2-[3-(3-Chlorophenyl)-1-{5-[2-(3-oxa-8-azabicyclo[3.2.1]oct-8-yl)ethyl]pyridin-2-yl}-5-oxo-1,5-dihydro-4H-1,2,4-triazol-4-yl]-N-(propan-2-yl)acetamide]	0.029	0.0086	–
COc1cc(-c2nn(-c3ccc(CCN4C5CCC4CC(O)C5)cc3)c(=O)n2CC(=O)NC(C)C)ccc1F (stereo not shown) [Ca-3, 2-[3-(4-Fluoro-3-methoxyphenyl)-1-{4-[2-(3-hydroxy-8-azabicyclo[3.2.1]oct-8-yl)ethyl]phenyl}-5-oxo-1,5-dihydro-4H-1,2,4-triazol-4-yl]-N-(propan-2-yl)acetamide]	0.016	0.006	–
COc1cc(-c2nn(-c3ccc(CCN4CCOCC4)cn3)c(=O)n2CC(=O)NC(C)C)ccc1F [Cb-2, 2-[3-(4-Fluoro-3-methoxyphenyl)-1-{5-[2-(morpholin-4-yl)ethyl]pyridin-2-yl}-5-oxo-1,5-dihydro-4H-1,2,4-triazol-4-yl]-N-(propan-2-yl)acetamide]	0.026	0.017	–
CC(C)NC(=O)Cn1c(-c2ccc(F)c(Cl)c2)nn(-c2ccc(CCN3C4CCC3COC4)cc2)c1=O [Da-5, 2-[3-(3-Chloro-4-fluorophenyl)-1-{4-[2-(3-oxa-8-azabicyclo[3.2.1]oct-8-yl)ethyl]phenyl}-5-oxo-1,5-dihydro-4H-1,2,4-triazol-4-yl]-N-(propan-2-yl)acetamide]	0.006	0.0025	–
CC(C)NC(=O)Cn1c(-c2ccc(F)c(Cl)c2)nn(-c2ccc(CCN3C4CCC3CC(O)C4)cc2)c1=O (stereo not shown) [Da-6, 2-[3-(3-Chloro-4-fluorophenyl)-1-{4-[2-(3-hydroxy-8-azabicyclo[3.2.1]oct-8-yl)ethyl]phenyl}-5-oxo-1,5-dihydro-4H-1,2,4-triazol-4-yl]-N-(propan-2-yl)acetamide]	–	0.0044	0.012
COc1cccc(-c2nn(-c3ccc(CCN4CCOCC4)cc3)c(=O)n2CC(=O)NC(C)C)n1 [Ja-1, 2-[3-(6-Methoxypyridin-2-yl)-1-{4-[2-(morpholin-4-yl)ethyl]phenyl}-5-oxo-1,5-dihydro-4H-1,2,4-triazol-4-yl]-N-(propan-2-yl)acetamide]	–	0.016	–
COc1cccc(-c2nn(-c3ccc(CCN4C5CCC4COC5)cc3)c(=O)n2CC(=O)NC(C)C)n1 [Ja-2, 2-[3-(6-Methoxypyridin-2-yl)-1-{4-[2-(3-oxa-8-azabicyclo[3.2.1]oct-8-yl)ethyl]phenyl}-5-oxo-1,5-dihydro-4H-1,2,4-triazol-4-yl]-N-(propan-2-yl)acetamide]	–	0.02	–

Further lines, with some results ahead:

IC50 (Human V1b receptor [1]; [3]) [µM]	IC50 (Human V1b receptor [2]) [µM]	Compound	IC50 (Human V1b receptor [1]) [µM]
0.0093	0.0086	CC(C)NC(=O)Cn1c(-c2cccc(Cl)c2)nn(-c2ccc(CCN3CCOCC3)cc2)c1=O [Aa-1, 2-[3-(3-Chlorophenyl)-1-{4-[2-(morpholin-4-yl)ethyl]phenyl}-5-oxo-1,5-dihydro-4H-1,2,4-triazol-4-yl]-N-(propan-2-yl)acetamide]	–
0.03	0.019	COc1cccc(-c2nn(-c3ccc(CCN4CCOCC4)cc3)c(=O)n2CC(=O)NC(C)C)c1 [Ba-2, 2-[3-(3-Methoxyphenyl)-1-{4-[2-(morpholin-4-yl)ethyl]phenyl}-5-oxo-1,5-dihydro-4H-1,2,4-triazol-4-yl]-N-(propan-2-yl)acetamide]	–
0.011	0.01	COc1cc(-c2nn(-c3ccc(CCN4CCOCC4)cc3)c(=O)n2CC(=O)NC(C)C)ccc1F [Ca-2, 2-[3-(4-Fluoro-3-methoxyphenyl)-1-{4-[2-(morpholin-4-yl)ethyl]phenyl}-5-oxo-1,5-dihydro-4H-1,2,4-triazol-4-yl]-N-(propan-2-yl)acetamide]	–
0.0063	0.0043	CC(C)NC(=O)Cn1c(-c2ccc(F)c(Cl)c2)nn(-c2ccc(CCN3CCOCC3)cc2)c1=O [Da-2, 2-[3-(3-Chloro-4-fluorophenyl)-1-{4-[2-(morpholin-4-yl)ethyl]phenyl}-5-oxo-1,5-dihydro-4H-1,2,4-triazol-4-yl]-N-(propan-2-yl)acetamide]	–
–	0.114	CC(C)NC(=O)Cn1c(-c2ccccc2)nn(-c2ccc(CCN3CCOCC3)cc2)c1=O [Ga-1, 2-(1-{4-[2-(Morpholin-4-yl)ethyl]phenyl}-5-oxo-3-phenyl-1,5-dihydro-4H-1,2,4-triazol-4-yl)-N-(propan-2-yl)acetamide]	–
–	0.046	CC(C)NC(=O)Cn1c(-c2cccc(S(C)(=O)=O)c2)nn(-c2ccc(CCN3CCOCC3)cc2)c1=O [Ia-1, 2-(3-[3-(Methylsulfonyl)phenyl]-1-{4-[2-(morpholin-4-yl)ethyl]phenyl}-5-oxo-1,5-dihydro-4H-1,2,4-triazol-4-yl)-N-(propan-2-yl)acetamide]	–
